Measurements reported in US11260023B2, “Topical compositions containing rofecoxib and methods of making and using the same” (BRIORI BIOTECH, LLC, priority 2020, dated 2022).
Values joined by “and” are separate entries in the source; they are usually repeats but may differ in a detail not shown here. Equal values may be shown once.

Assay: Solubility of rofecoxib in solvent systems containing two or three solvents; synergistic or antagonist effect
Format: physicochemical
Experimental: The solubility of rofecoxib in solvent systems containing two or three solvents was determined. In solvent systems containing two solvents, […] of each solvent was added to 100 mg of rofecoxib. In solvent systems containing three solvents, […] of each solvent was added to 100 mg of rofecoxib. The samples were mixed using the protocol for solvent systems containing single solvents above. Serial dilutions of the rofecoxib solvent solutions were made (1:100 v:v), (1:1000 v/v), and (1:2000 v/v). Solvents without rofecoxib were diluted with methanol and used to blank a Beckman DU-7400 spectrophotometer. The absorbance of the samples was determined at a wavelength of 279.1 nm. The concentration of rofecoxib dissolved in the solvent was calculated using Beer's Law. The ability of the solvent systems to synergistically dissolve rofecoxib or antagonistically dissolve rofecoxib (reduce the ability of rofecoxib to dissolve was determined) according to the protocol below. The contribution for solubility of a single solvent in a two-mixture solution was calculated to be ½ of the calculated solubility of rofecoxib in one gram of excipient. Likewise, the contribution for solubility of a three-mixture was calculated to be ⅓ of the calculated solubility of rofecoxib in one gram of excipient. The expected solubility for a mixture is the addition of the contribution of each excipient. […] The percent change between the expected solubility and actual solubility was determined. […] Similar calculations are utilized for solvent systems containing three or more solvents.

CS(=O)(=O)c1ccc(C2=C(c3ccccc3)C(=O)OC2)cc1 [Rofecoxib]
% Change (observed vs expected solubility) (in DI + PGD): 123.9% | Expected Solubility (in DI + PGD): 23.04 mg/g | Observed Solubility (in DI + PGD): 28.54 mg/g | % Change (observed vs expected solubility) (in EA + AC): 79.1% | Expected Solubility (in EA + AC): 14.52 mg/g | Observed Solubility (in EA + AC): 11.49 mg/g | % Change (observed vs expected solubility) (in EA + AT): 82.6% | Expected Solubility (in EA + AT): 2.91 mg/g | Observed Solubility (in EA + AT): 2.40 mg/g | % Change (observed vs expected solubility) (in EA + BA): 94.1% | Expected Solubility (in EA + BA): 12.52 mg/g | Observed Solubility (in EA + BA): 11.78 mg/g | % Change (observed vs expected solubility) (in EA + DGME): 55.4% | Expected Solubility (in EA + DGME): 7.29 mg/g | Observed Solubility (in EA + DGME): 4.04 mg/g | % Change (observed vs expected solubility) (in EA + DI): 62.0% | Expected Solubility (in EA + DI): 22.32 mg/g | Observed Solubility (in EA + DI): 13.84 mg/g | % Change (observed vs expected solubility) (in EA + DIA): 85.7% | Expected Solubility (in EA + DIA): 3.77 mg/g | Observed Solubility (in EA + DIA): 3.23 mg/g | % Change (observed vs expected solubility) (in EA + DMSO): 122.9% | Expected Solubility (in EA + DMSO): 74.55 mg/g | Observed Solubility (in EA + DMSO): 91.63 mg/g | % Change (observed vs expected solubility) (in EA + DS): 88.0% | Expected Solubility (in EA + DS): 3.67 mg/g | Observed Solubility (in EA + DS): 3.22 mg/g | % Change (observed vs expected solubility) (in EA + IPTD): 41.5% | Expected Solubility (in EA + IPTD): 2.75 mg/g | Observed Solubility (in EA + IPTD): 1.14 mg/g | % Change (observed vs expected solubility) (in EA + M24D): 110.4% | Expected Solubility (in EA + M24D): 3.05 mg/g | Observed Solubility (in EA + M24D): 3.36 mg/g | % Change (observed vs expected solubility) (in EA + MP): 75.3% | Expected Solubility (in EA + MP): 101.75 mg/g | Observed Solubility (in EA + MP): 76.59 mg/g | % Change (observed vs expected solubility) (in EA + OA): 38.5% | Expected Solubility (in EA + OA): 2.95 mg/g | Observed Solubility (in EA + OA): 1.14 mg/g | % Change (observed vs expected solubility) (in EA + PC): 103.9% | Expected Solubility (in EA + PC): 27.47 mg/g | Observed Solubility (in EA + PC): 28.53 mg/g | % Change (observed vs expected solubility) (in EA + PEG): 120.0% | Expected Solubility (in EA + PEG): 9.32 mg/g | Observed Solubility (in EA + PEG): 11.19 mg/g | % Change (observed vs expected solubility) (in EA + PGD): 109.1% and 100.3% | Expected Solubility (in EA + PGD): 6.22 mg/g | Observed Solubility (in EA + PGD): 6.78 mg/g and 6.23 mg/g | % Change (observed vs expected solubility) (in EA + PPG): 156.1% | Expected Solubility (in EA + PPG): 2.90 mg/g | Observed Solubility (in EA + PPG): 4.53 mg/g | % Change (observed vs expected solubility) (in EA + PS20): 107.9% | Expected Solubility (in EA + PS20): 7.34 mg/g | Observed Solubility (in EA + PS20): 7.92 mg/g | % Change (observed vs expected solubility) (in EA + PS80): 105.8% | Expected Solubility (in EA + PS80): 7.61 mg/g | Observed Solubility (in EA + PS80): 8.05 mg/g | % Change (observed vs expected solubility) (in MP + EA): 71.4% | Expected Solubility (in MP + EA): 107.75 mg/g | Observed Solubility (in MP + EA): 76.89 mg/g | % Change (observed vs expected solubility) (in MP + PEG + PGD): 35.17% | Expected Solubility (in MP + PEG + PGD): 72.69 mg/g | Expected Solubility (in PC + AC): 36.48 mg/g and 36.5 mg/g | % Change (observed vs expected solubility) (in PC + AC + MP): 34.18% | Expected Solubility (in PC + AC + MP): 90.34 mg/g | % Change (observed vs expected solubility) (in PC + AC + PEG): 123.74% | Expected Solubility (in PC + AC + PEG): 28.72 mg/g | Observed Solubility (in PC + AC + PEG): 35.53 mg/g | % Change (observed vs expected solubility) (in PC + AC + PGD): 200.59% and 129.71% and 114.18% | Expected Solubility (in PC + AC + PGD): 26.65 mg/g | Observed Solubility (in PC + AC + PGD): 53.45 mg/g and 34.56 mg/g | % Change (observed vs expected solubility) (in PC + BA): 99.3% | Expected Solubility (in PC + BA): 34.49 mg/g | Observed Solubility (in PC + BA): 34.26 mg/g | % Change (observed vs expected solubility) (in PC + BA + AC): 134.75% | Expected Solubility (in PC + BA + AC): 30.85 mg/g | Observed Solubility (in PC + BA + AC): 41.57 mg/g | % Change (observed vs expected solubility) (in PC + BA + DMSO): 85.64% | Expected Solubility (in PC + BA + DMSO): 70.86 mg/g | % Change (observed vs expected solubility) (in PC + BA + MP): 21.30% | Expected Solubility (in PC + BA + MP): 88.99 mg/g | % Change (observed vs expected solubility) (in PC + BA + PEG): 63.48% | Expected Solubility (in PC + BA + PEG): 27.37 mg/g | % Change (observed vs expected solubility) (in PC + BA + PGD): 84.91% | Expected Solubility (in PC + BA + PGD): 25.30 mg/g | % Change (observed vs expected solubility) (in PC + MP): 69.3% | Expected Solubility (in PC + MP): 123.72 mg/g | Observed Solubility (in PC + MP): 85.76 mg/g | % Change (observed vs expected solubility) (in PC + MP + PEG): 46.39% | Expected Solubility (in PC + MP + PEG): 86.86 mg/g | % Change (observed vs expected solubility) (in PC + MP + PGD): 21.70% | Expected Solubility (in PC + MP + PGD): 84.79 mg/g | % Change (observed vs expected solubility) (in PC + PEG + PGD): 153.76% | Expected Solubility (in PC + PEG + PGD): 23.17 mg/g | Observed Solubility (in PC + PEG + PGD): 35.62 mg/g | % Change (observed vs expected solubility) (in PC + PGD): 123.0% and 97.8% | Expected Solubility (in PC + PGD): 28.18 mg/g | Observed Solubility (in PC + PGD): 34.66 mg/g and 27.55 mg/g | % Change (observed vs expected solubility) (in PEG + DGME): 119.7% | Expected Solubility (in PEG + DGME): 11.11 mg/g | Observed Solubility (in PEG + DGME): 13.30 mg/g | % Change (observed vs expected solubility) (in PEG + EA): 150.3% | Expected Solubility (in PEG + EA): 9.32 mg/g | Observed Solubility (in PEG + EA): 14.00 mg/g | % Change (observed vs expected solubility) (in PEG + PGD): 124.5% and 120.8% | Expected Solubility (in PEG + PGD): 10.04 mg/g | Observed Solubility (in PEG + PGD): 12.50 mg/g and 12.13 mg/g
